In ChEMBL document CHEMBL1201862, “PubChem BioAssay data set” (2004):
Where a name gives a salt, the structure may show the parent alone. Active and inactive are the calls of the source.

Legend:
[1] = SNU-C1 cell viability reduction, dose response, CellTiter-Glo luminescence (AID 1117323); assay type: functional, cell-based
[2] = cytotoxicity toward Colo320 cells – cell-based, CellTiter-Glo luminescence, IC50, dose response (AID 1117334); assay type: functional; settings: COLO 320
[3] = HCT116 cell viability decrease, GSK3B pretreatment – CellTiter-Glo, IC50, dose response (AID 1117339); assay type: functional; settings: HCT-116
[4] = RKO cell viability reduction, dose response, CellTiter-Glo luminescence (AID 1117322); assay type: functional
[5] = cytotoxicity toward HT-29 cells – cell-based, CellTiter-Glo luminescence, IC50, dose response (AID 1117330); assay type: functional
[6] = CellTiter-Glo luminescence survival assay, SW480 colon tumor line, concentration-response curve, half-maximal inhibitory concentration (AID 1117338); assay type: functional
[7] = cytotoxicity toward HCT116 cells – cell-based, CellTiter-Glo luminescence, IC50, dose response (AID 1117332); assay type: functional; settings: HCT-116
[8] = rise of 4N DNA cells, HeLa – IC50, dose response (AID 1117351); assay type: functional, cell-based
[9] = Reduced DLD-1 viability, concentration-response, CellTiter-Glo luminescence (AID 1117352); assay type: functional
[10] = rise of 2N DNA cells, HeLa – IC50, dose response (AID 1117349); assay type: functional, cell-based
[11] = IC50 of insulin release inhibition, rat insulinoma INS-1E line, 5 mM glucose, cell-based (AID 1117331); assay type: functional
[12] = cells; assay type: functional, cell-based; settings: INS-1E
[13] = target: T1, Cytochrome P450 1A2 (Homo sapiens, UniProt P05177);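 further: PubChem cytochrome P450 panel assay, CYP1A2 panel member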
T1 sequence (P05177 whole entry): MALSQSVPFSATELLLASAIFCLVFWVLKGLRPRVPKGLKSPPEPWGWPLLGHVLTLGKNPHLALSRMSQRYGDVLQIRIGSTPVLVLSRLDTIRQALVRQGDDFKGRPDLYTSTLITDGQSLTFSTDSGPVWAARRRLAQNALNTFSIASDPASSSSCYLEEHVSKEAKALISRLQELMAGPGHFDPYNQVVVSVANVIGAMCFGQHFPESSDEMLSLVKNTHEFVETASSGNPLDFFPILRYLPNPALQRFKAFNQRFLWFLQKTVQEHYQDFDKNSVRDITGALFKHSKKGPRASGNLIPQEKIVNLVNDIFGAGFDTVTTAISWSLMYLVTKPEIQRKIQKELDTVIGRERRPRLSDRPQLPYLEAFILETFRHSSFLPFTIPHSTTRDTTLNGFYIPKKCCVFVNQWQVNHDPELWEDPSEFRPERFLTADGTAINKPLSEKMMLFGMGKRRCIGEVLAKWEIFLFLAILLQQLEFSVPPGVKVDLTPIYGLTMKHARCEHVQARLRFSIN

[14] = IC50 of Artemis nuclease activity blockers – biochemical, fluorescence intensity, dose response (AID 720701); assay type: functional;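 further: Artemis endonuclease enzyme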
[15] = target: T2, Leucine aminopeptidase (Plasmodium falciparum 3D7, UniProt Q8IL11); assay: P. falciparum M17LAP inhibitors, primary screen, biochemical, fluorogenic H-Leu-NHMec substrate, 1536-well (AID 1619); assay type: functional
T2 sequence (Q8IL11 whole entry): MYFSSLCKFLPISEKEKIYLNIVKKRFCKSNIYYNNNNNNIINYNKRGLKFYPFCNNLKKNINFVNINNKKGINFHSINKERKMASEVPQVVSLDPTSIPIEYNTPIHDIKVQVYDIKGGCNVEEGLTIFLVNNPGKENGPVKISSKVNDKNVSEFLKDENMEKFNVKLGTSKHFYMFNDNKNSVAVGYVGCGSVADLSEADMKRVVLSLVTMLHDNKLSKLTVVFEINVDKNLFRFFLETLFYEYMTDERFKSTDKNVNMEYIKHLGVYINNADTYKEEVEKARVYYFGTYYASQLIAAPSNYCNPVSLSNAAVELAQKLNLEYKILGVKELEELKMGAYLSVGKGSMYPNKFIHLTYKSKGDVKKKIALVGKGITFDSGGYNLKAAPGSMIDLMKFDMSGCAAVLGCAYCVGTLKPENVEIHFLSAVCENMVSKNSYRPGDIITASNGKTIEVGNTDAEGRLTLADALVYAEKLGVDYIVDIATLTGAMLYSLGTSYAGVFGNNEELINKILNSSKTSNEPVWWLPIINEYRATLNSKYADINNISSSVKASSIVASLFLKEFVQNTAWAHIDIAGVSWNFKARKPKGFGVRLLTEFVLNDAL

[16] = target: T3, Cytochrome P450 3A4 (Homo sapiens, UniProt P08684)
[17] = target: T3, Cytochrome P450 3A4; settings: Potency
[18] = target: Cytochrome P450 2C19 (Homo sapiens, UniProt P33261); assay: qHTS Assay for Inhibitors and Substrates of Cytochrome P450 2C19. [Related pubchem assays: 410 ]; assay type: ADME; settings: read-out: Potency
[19] = target: Solute carrier family 12 member 2/member 5 (Homo sapiens, UniProt P55011+Q9H2X9); assay: KCC2 and NKCC1 inhibition by rubidium flux, cell-based, NKCC1 counter-screen (AID 1734); assay type: functional, HEK293
[20] = glucagon-like peptide-1 release potency in STC-1, concentration-response, half-maximal inhibitory concentration in the STC-1 line (AID 1117345); assay type: functional, cell-based
[21] = Potency on glucagon-like peptide 1 release, dose-response in NCI-H716 cell line, half maximal inhibitory concentration (AID 1117344); assay type: functional, cell-based

T3 sequence (P08684 whole entry): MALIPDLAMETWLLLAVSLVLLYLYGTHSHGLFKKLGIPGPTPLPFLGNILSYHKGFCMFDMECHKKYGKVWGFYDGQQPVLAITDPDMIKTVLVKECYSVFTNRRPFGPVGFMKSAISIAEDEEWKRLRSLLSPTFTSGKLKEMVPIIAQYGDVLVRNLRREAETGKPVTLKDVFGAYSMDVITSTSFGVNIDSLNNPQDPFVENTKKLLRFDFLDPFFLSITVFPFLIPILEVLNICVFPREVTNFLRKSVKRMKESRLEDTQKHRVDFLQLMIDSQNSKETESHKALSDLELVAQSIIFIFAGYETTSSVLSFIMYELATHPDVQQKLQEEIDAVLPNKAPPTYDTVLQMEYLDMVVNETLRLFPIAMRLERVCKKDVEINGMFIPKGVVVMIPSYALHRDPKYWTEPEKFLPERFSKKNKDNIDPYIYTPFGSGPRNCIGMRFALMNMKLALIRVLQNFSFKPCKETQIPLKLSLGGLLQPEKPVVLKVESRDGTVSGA
Chain of Cytochrome P450 2C19 (P33261 whole entry): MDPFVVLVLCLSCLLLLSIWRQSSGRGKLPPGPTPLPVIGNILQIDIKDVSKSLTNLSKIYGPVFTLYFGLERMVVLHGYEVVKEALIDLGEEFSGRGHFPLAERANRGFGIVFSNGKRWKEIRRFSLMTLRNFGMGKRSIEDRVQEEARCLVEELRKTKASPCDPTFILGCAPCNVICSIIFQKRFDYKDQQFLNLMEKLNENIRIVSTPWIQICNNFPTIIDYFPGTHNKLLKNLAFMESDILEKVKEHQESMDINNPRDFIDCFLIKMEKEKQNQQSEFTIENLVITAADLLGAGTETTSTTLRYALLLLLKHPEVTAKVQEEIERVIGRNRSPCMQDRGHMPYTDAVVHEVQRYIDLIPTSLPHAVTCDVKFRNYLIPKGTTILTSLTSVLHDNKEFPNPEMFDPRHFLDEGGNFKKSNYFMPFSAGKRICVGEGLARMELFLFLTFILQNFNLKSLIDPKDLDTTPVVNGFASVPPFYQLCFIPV

CCCCC(CC)CNC(=N)NC(=N)NCCCCCCNC(=N)NC(=N)NCC(CC)CCCC (stereo unspecified) [ALEXIDINE DIHYDROCHLORIDE]
IC50 [1]: 0.0941 µM (active)
IC50 [2]: 0.0041 µM (active)
IC50 [3]: 0.396 µM (active)
IC50 [4]: 0.223 µM (active)
IC50 [5]: 0.0302 µM (active)
IC50 [6]: 0.333 µM (active)
IC50 [7]: 0.71 µM (active)
IC50 [8]: > 10 µM (inactive)
IC50 [9]: 0.0197 µM (active)
IC50 [10]: > 10 µM (inactive)

CC(C)[C@H]1CC[C@H](C(=O)N[C@H](Cc2ccccc2)C(=O)O)CC1 [NATEGLINIDE]
IC50 [11]: 7.07 µM (inactive)
IC50 [12]: > 33.3 µM (inactive)

Cc1sc(NC(=O)C2C3CCC(O3)C2C(=O)O)c(C(=O)OC(C)C)c1-c1ccc(Cl)cc1 (stereo unspecified)
AC50 [13]: 22.4 µM (inconclusive)
IC50 [14]: > 20 µM (inactive)
IC50 [15]: 10.1 µM (active)
AC50 [16]: 15.8 µM (inconclusive)

CCOC(=O)OCC1OC(c2ccccc2)C=CC1Oc1cccc(N(C)C)c1 (stereo unspecified)
AC50 [17]: 3.16 µM (inconclusive)
AC50 [18]: 3.16 µM (inconclusive)

CC1Cc2ccccc2N1C(=O)c1ccc(N2CCCC2)c([N+](=O)[O-])c1 (stereo unspecified)
IC50 [19]: 51 µM (active)

Cc1cc(OCCOCC[N+](C)(C)Cc2ccccc2)ccc1C(C)(C)CC(C)(C)C
IC50 [20]: > 40 µM (inactive)
IC50 [21]: 12 µM (inactive)
